Entries after “also recorded” stand apart in the source; their conditions may differ.
What was measured:
[1] = target: T1, human FXR (Homo sapiens, UniProt Q96RI1); assay: PGL4-Shp-TK luciferase assay in Caco-2 cells transfected with human FXR and human ASBT; format: cell-based; conditions: 100 μM TCA
T1 construct: expressed in transfected cells; host or cells: Caco-2
T1 sequence (Q96RI1 1-486): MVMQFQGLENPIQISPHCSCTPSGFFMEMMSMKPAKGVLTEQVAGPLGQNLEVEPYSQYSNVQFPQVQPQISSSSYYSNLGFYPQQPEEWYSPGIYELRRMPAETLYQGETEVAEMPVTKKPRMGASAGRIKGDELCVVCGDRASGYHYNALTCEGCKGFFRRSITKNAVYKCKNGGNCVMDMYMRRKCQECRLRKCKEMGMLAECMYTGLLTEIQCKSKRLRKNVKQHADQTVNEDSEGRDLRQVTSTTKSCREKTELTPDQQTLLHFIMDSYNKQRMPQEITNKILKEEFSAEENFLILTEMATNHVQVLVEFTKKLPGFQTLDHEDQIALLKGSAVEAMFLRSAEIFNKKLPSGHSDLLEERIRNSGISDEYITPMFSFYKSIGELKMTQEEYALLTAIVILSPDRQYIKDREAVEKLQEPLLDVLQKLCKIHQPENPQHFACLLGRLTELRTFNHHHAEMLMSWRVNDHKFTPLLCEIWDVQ
Text: (§1) The PGL4-Shp-TK firefly luciferase construct and human Fxr expression plasmid were provided by Grace L. Guo of Rutgers University. The human Asbt expression plasmid was provided by Paul A. Dawson of Wake Forest University School of Medicine. The plasmids were transfected into cells using X-[…]™ HP DNA Transfection Reagent (Roche). The cells were lysed, and luciferase activities measured with a DUAL-LUCIFERASE™ assay kit (Promega). Firefly luciferase activity was normalized to Renilla luciferase activity.
Caco-2 cells were transfected with PGL4-Shp-TK firefly luciferase construct, the control plasmid phRL-SV40, and human FXR and human ASBT expression plasmids. After 24 h, the cells were treated with 100 μM TCA, TβMCA, or TβMCA with […] 100 μM TCA. The cells were lysed, and luciferase activities measured as describe herein. The results are depicted in FIG. 2.

[2] = target: T2, FXR (Mus musculus, UniProt Q60641); assay: PGL4-Shp-TK luciferase assay in primary hepatocytes; format: cell-based; conditions: primary hepatocytes from Fxr^+/+ mice; 100 μM TCA
T2 construct: Primary hepatocytes from Fxr^+/+ and Fxr^−/− mice were transfected with PGL4-Shp-TK firefly luciferase construct and the control plasmid phRL-SV40; endogenous in cells; host or cells: primary mouse hepatocytes (Fxr+/+; Fxr-/- as negative control)
T2 sequence (Q60641 1-488): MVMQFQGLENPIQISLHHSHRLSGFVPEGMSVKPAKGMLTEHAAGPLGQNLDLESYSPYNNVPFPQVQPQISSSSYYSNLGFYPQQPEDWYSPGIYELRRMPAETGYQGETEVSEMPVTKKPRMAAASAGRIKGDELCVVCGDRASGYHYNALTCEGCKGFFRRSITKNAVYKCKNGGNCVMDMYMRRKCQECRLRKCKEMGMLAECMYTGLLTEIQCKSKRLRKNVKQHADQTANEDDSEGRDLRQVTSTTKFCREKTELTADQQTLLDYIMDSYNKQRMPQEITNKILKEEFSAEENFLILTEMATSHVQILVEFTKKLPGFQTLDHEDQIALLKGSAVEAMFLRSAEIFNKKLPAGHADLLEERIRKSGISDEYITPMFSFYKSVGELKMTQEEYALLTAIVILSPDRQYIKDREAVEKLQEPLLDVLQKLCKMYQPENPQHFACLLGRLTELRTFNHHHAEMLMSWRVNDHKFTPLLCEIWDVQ
Text: as §1
Primary hepatocytes from Fxr^+/+ and Fxr^−/− mice were transfected with PGL4-Shp-TK firefly luciferase construct and the control plasmid phRL-SV40. After 24 h, the cells were treated with 100 μM taurocholic acid (TCA), TβMCA, or TβMCA with TCA. The cells were lysed, and luciferase activities measured as describe herein. The results are depicted in FIG. 1.

[3] = target: T3, human FXR (Homo sapiens, UniProt Q96RI1); assay: human FXR competition assay (GAL4-FXR chimeric receptor luciferase, HEK293T); format: cell-based; conditions: in the presence of GW4064
T3 construct: expressed in transfected cells; host or cells: HEK293T
T3 sequence (Q96RI1 262-486 limits assumed): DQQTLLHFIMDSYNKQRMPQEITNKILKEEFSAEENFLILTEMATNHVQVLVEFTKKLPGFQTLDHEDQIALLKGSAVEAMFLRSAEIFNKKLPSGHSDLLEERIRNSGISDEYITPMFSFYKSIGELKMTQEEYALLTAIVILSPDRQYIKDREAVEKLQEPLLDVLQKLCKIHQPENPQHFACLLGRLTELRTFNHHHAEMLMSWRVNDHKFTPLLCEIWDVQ
Protocol: Luciferase detection was conducted using the Dual Luciferase Reporter Assay kit (Promega Corp., Madison, Wis.) and a Tecan GeniosPro luminescent plate reader (Research Triangle Park, N.C.).
Luciferase detection was conducted using the Dual Luciferase Reporter Assay kit (Promega; Madison, Wis.) and a Tecan GeniosPro™ luminescent plate reader (Research Triangle Park, N.C.).

[4] = target: T2, FXR; assay: FXR signaling in the ileum (Shp, Fgf15 mRNA); format: in vivo; conditions: mice treated with antibiotic on HFD for three days; TCA and TβMCA 400 mg/kg each, oral
Text: High-fat diet (HFD) (60% kcal consisting of fat) was purchased from Bioserv. […] Fxr^fl/fl and Fxr^ΔIE (Kim et al., J. Lipid Res. 48:2664-2672, 2007) mice were backcrossed with C57BL/6N mice for over 10 generations. For the antibiotic (the combination of bacitracin, neomycin, and streptomycin) study, male C57BL/6N mice from 6 weeks of age were fed a high-fat diet (“HFD) and administered 0.1% (w/v) of each compound (the combination of bacitracin, neomycin, and streptomycin) in the drinking water. […] For TβMCA in vivo, male C57BL/6N mice from 6 weeks of age were fed a HFD and treated with the antibiotics (0.1% of each compound of bacitracin, neomycin, and streptomycin combination) for 3 days. […] Cumulative food intake and TEEbal were measured for 1 week in vehicle and Gly-MCA-treated mice from 6 to 7 weeks of HFD. TEEbal was measured as previously described (Ravussin et al., Int. J. Obesity 37:399-403, 2013).
The mucosa of intestine was gently scraped and liver was taken and both were flash frozen in liquid nitrogen and stored at −80° C. until RNA was prepared. […] Measured mRNA levels were normalized to those of 18S ribosomal RNA and expressed as fold change relative to those of control group.

## C[C@H](CCC(=O)NCCS(=O)(=O)O)[C@H]1CC[C@H]2[C@@H]3[C@@H](O)[C@@H](O)[C@@H]4C[C@H](O)CC[C@]4(C)[C@H]3CC[C@]12C [TβMCA, tauro-β-muricholic acid]
[1]
  FXR activation by TCA (luciferase activity): antagonizes FXR activation; also recorded: antagonized FXR activation by TCA
[2]
  FXR activation by TCA (luciferase activity): antagonizes farnesoid X receptor (FXR) activation; also recorded: antagonized FXR activation by TCA
[3]
  FXR activity induced by synthetic agonist GW4064 (luciferase, normalized to Renilla): inhibited FXR
[4]
  Shp and Fgf15 induction by the FXR agonist TCA in the ileum: significantly blunted
